Measurements as given in patent publication US20080254445A1, “Prognosis in Cancer Patients Vaccinated with a Cancer Antigen Peptide-Associated Agent” (priority 2003, published 2008).

Assays:
[1] = tested on: peptide-specific CTL precursors in PBMCs; test: Peptide-specific CTL precursors in pre- and post (6th)-vaccination PBMCs by IFN-γ-release assay; format: cell-based, human; settings: post (6th)-vaccination PBMC; positive cases/No. of tested cases (% positive)
[2] = tested on: peptide-reactive IgG; test: ELISA of peptide-reactive serum IgG in pre- and post-vaccination sera; format: in vivo, human; settings: post (3rd and 6th)-vaccination sera vs pre-vaccination; positive cases/No. of tested cases (% positive)
[3] = Delayed type hypersensitivity (DTH) skin test; format: in vivo, human; settings: skin test site, first to 6th vaccination; positive cases/No. of tested cases (% positive)

Sequence | Increased immune reactions to peptide: CTL activity [1] | Increased immune reactions to peptide: IgG antibody [2] | Increased immune reactions to peptide: DTH response [3]
AFLRHAAL [ART4 13] | 0/1 | 0/2 | 0/4
ALVEFEDVL [HNRPL140] | 0/5 | 0/5 | 0/5
ASLDSDPWV [WHSC103] | 0/6 | – | –
DFMIQGGDF [CypB91] | 0/17 | – | –
DVWSFGILL [Ick422] | – | 0/10 | –
DYPSLSATDI [ART4 75] | – | 0/15 | –
DYSARWNEI [SART2 93] | – | – | 0/19
EYCLKFTKL [ART1 170] | 0/7 | – | 0/9
ILGELREKV [WHSC141] | – | – | 0/8
ILPRKHHRI [UBE208] | 0/1 | – | 0/1
KFHRVIKDF [CypB84] | 0/3 | – | 0/4
KLKHYGPGWV [CypB129] | 0/6 | – | –
KLVERLGAA [Ick246] | – | – | 0/7
LIADFLSGL [UBE85] | – | – | 0/2
LLQAEAPRL [SART3 302] | 0/4 | 0/5 | 0/6
RIIYDRKFL [EIF51] | 0/1 | – | 0/1
RLAEYQAYI [SART3 309] | 0/6 | – | 0/9
SYTRLFLIL [SART2 899] | 0/7 | – | –
